Assay results: ChEMBL document CHEMBL3124930, “Synthesis of novel 5-(3-alkylquinolin-2-yl)-3-aryl isoxazole derivatives and their cytotoxic activity” (Bioorg Med Chem Lett, 2014)

test system: PC-3; experiment: Cytotoxicity against human PC3 cells assessed as growth inhibition after 24 hrs by MTT assay; type: functional, cell-based; settings: PC-3, 24 h

CCc1cc2ccccc2nc1-c1cc(-c2ccc(C)cc2)no1 and CCCc1cc2ccccc2nc1-c1cc(-c2ccc(C)cc2)no1 cannot be ordered by IC50: > 100 µM for the first, > 100 µM for the second.

Fc1ccc(-c2cc(/C=N/c3ccccc3)on2)cc1 and Cc1ccc(-c2cc(/C=N/c3ccccc3)on2)cc1 are within 1.5-fold of each other in IC50: 36.5 µM for the first, 31.6 µM for the second.

First: C(=N\c1ccccc1)/c1cc(-c2ccccc2)no1
Second: FC(F)(F)c1ccc(-c2cc(/C=N/c3ccccc3)on2)cc1
The IC50 of the first is higher: > 100 µM for the first, 35.7 µM for the second.

CCCCCc1cc2ccccc2nc1-c1cc(-c2ccccc2)no1 and CCCCc1cc2ccccc2nc1-c1cc(-c2ccccc2)no1 cannot be ordered by IC50: > 100 µM for the first, > 100 µM for the second.

Compared with CCCc1cc2ccccc2nc1-c1cc(-c2ccccc2)no1, CCc1cc2ccccc2nc1-c1cc(-c2ccccc2)no1 is higher in IC50: 51.3 µM for the first, > 100 µM for the second. The first is the more potent here.

CCCCCc1cc2ccccc2nc1-c1cc(-c2ccc(C)cc2)no1 and CCCCc1cc2ccccc2nc1-c1cc(-c2ccc(C)cc2)no1 cannot be ordered by IC50: > 100 µM for the first, > 100 µM for the second.

Going from CCCc1cc2ccccc2nc1-c1cc(-c2ccc(C(F)(F)F)cc2)no1 to CCCCc1cc2ccccc2nc1-c1cc(-c2ccc(C(F)(F)F)cc2)no1, the IC50 falls from 33.8 µM to 10.8 µM (3.1-fold).

Going from CCCCCc1cc2ccccc2nc1-c1cc(-c2ccc(C(F)(F)F)cc2)no1 to CCc1cc2ccccc2nc1-c1cc(-c2ccc(C(F)(F)F)cc2)no1, the IC50 rises from 30.2 µM to > 100 µM. The first is the more potent here.

First: COc1cccc2c1C(=O)c1c(O)c3c(c(O)c1C2=O)C[C@@](O)(C(=O)CO)C[C@@H]3O[C@H]1C[C@H](N)[C@H](O)[C@H](C)O1 [DOXORUBICIN]
Second: CCc1cc2ccccc2nc1-c1cc(-c2ccc(F)cc2)no1
The IC50 of the first is lower: 0.6 µM for the first, > 100 µM for the second.

Going from CCCc1cc2ccccc2nc1-c1cc(-c2ccc(F)cc2)no1 to CCCCc1cc2ccccc2nc1-c1cc(-c2ccc(F)cc2)no1, the IC50 falls from 42.2 µM to 26.3 µM (1.6-fold).

test system: COLO 205; experiment: Cytotoxicity against human COLO205 cells assessed as growth inhibition after 24 hrs by MTT assay; type: functional, cell-based; settings: COLO 205, 24 h

CCc1cc2ccccc2nc1-c1cc(-c2ccc(C)cc2)no1 and CCCc1cc2ccccc2nc1-c1cc(-c2ccc(C)cc2)no1 cannot be ordered by IC50: > 100 µM for the first, > 100 µM for the second.

Fc1ccc(-c2cc(/C=N/c3ccccc3)on2)cc1 and Cc1ccc(-c2cc(/C=N/c3ccccc3)on2)cc1 are within 1.5-fold of each other in IC50: 33.1 µM for the first, 28.9 µM for the second.

First: C(=N\c1ccccc1)/c1cc(-c2ccccc2)no1
Second: FC(F)(F)c1ccc(-c2cc(/C=N/c3ccccc3)on2)cc1
The IC50 of the first is 2.2-fold higher: 89.1 µM for the first, 41.3 µM for the second.

CCCCCc1cc2ccccc2nc1-c1cc(-c2ccccc2)no1 and CCCCc1cc2ccccc2nc1-c1cc(-c2ccccc2)no1 cannot be ordered by IC50: > 100 µM for the first, > 100 µM for the second.

Going from CCCc1cc2ccccc2nc1-c1cc(-c2ccccc2)no1 to CCc1cc2ccccc2nc1-c1cc(-c2ccccc2)no1, the IC50 rises from 48.9 µM to > 100 µM.

CCCCCc1cc2ccccc2nc1-c1cc(-c2ccc(C)cc2)no1 and CCCCc1cc2ccccc2nc1-c1cc(-c2ccc(C)cc2)no1 cannot be ordered by IC50: > 100 µM for the first, > 100 µM for the second.

Going from CCCc1cc2ccccc2nc1-c1cc(-c2ccc(C(F)(F)F)cc2)no1 to CCCCc1cc2ccccc2nc1-c1cc(-c2ccc(C(F)(F)F)cc2)no1, the IC50 falls from 42.2 µM to 11.9 µM (3.5-fold).

Compared with CCCCCc1cc2ccccc2nc1-c1cc(-c2ccc(C(F)(F)F)cc2)no1, CCc1cc2ccccc2nc1-c1cc(-c2ccc(C(F)(F)F)cc2)no1 is higher in IC50: 24.5 µM for the first, > 100 µM for the second. The first is the more potent here.

Going from COc1cccc2c1C(=O)c1c(O)c3c(c(O)c1C2=O)C[C@@](O)(C(=O)CO)C[C@@H]3O[C@H]1C[C@H](N)[C@H](O)[C@H](C)O1 [DOXORUBICIN] to CCc1cc2ccccc2nc1-c1cc(-c2ccc(F)cc2)no1, the IC50 rises from 0.7 µM to > 100 µM.

First: CCCc1cc2ccccc2nc1-c1cc(-c2ccc(F)cc2)no1
Second: CCCCc1cc2ccccc2nc1-c1cc(-c2ccc(F)cc2)no1
The IC50 of the first is 2-fold higher: 50.3 µM for the first, 25.3 µM for the second.

test system: MDA-MB-231; experiment: Cytotoxicity against human MDA-MB-231 cells assessed as growth inhibition after 24 hrs by MTT assay; type: functional, cell-based; settings: MDA-MB-231, 24 h

CCc1cc2ccccc2nc1-c1cc(-c2ccc(C)cc2)no1 and CCCc1cc2ccccc2nc1-c1cc(-c2ccc(C)cc2)no1 cannot be ordered by IC50: > 100 µM for the first, > 100 µM for the second.

Fc1ccc(-c2cc(/C=N/c3ccccc3)on2)cc1 and Cc1ccc(-c2cc(/C=N/c3ccccc3)on2)cc1 are within 1.5-fold of each other in IC50: 41.2 µM for the first, 29.4 µM for the second.

First: C(=N\c1ccccc1)/c1cc(-c2ccccc2)no1
Second: FC(F)(F)c1ccc(-c2cc(/C=N/c3ccccc3)on2)cc1
The IC50 of the first is higher: > 100 µM for the first, 37.4 µM for the second. The second is the more potent here.

CCCCCc1cc2ccccc2nc1-c1cc(-c2ccccc2)no1 and CCCCc1cc2ccccc2nc1-c1cc(-c2ccccc2)no1 cannot be ordered by IC50: > 100 µM for the first, > 100 µM for the second.

First: CCCc1cc2ccccc2nc1-c1cc(-c2ccccc2)no1
Second: CCc1cc2ccccc2nc1-c1cc(-c2ccccc2)no1
The IC50 of the first is lower: 47.2 µM for the first, > 100 µM for the second. The first is the more potent here.

CCCCCc1cc2ccccc2nc1-c1cc(-c2ccc(C)cc2)no1 and CCCCc1cc2ccccc2nc1-c1cc(-c2ccc(C)cc2)no1 cannot be ordered by IC50: > 100 µM for the first, > 100 µM for the second.

First: CCCc1cc2ccccc2nc1-c1cc(-c2ccc(C(F)(F)F)cc2)no1
Second: CCCCc1cc2ccccc2nc1-c1cc(-c2ccc(C(F)(F)F)cc2)no1
The IC50 of the first is 3.5-fold higher: 36.5 µM for the first, 10.4 µM for the second. The second is the more potent here.

First: CCCCCc1cc2ccccc2nc1-c1cc(-c2ccc(C(F)(F)F)cc2)no1
Second: CCc1cc2ccccc2nc1-c1cc(-c2ccc(C(F)(F)F)cc2)no1
The IC50 of the first is lower: 22.1 µM for the first, > 100 µM for the second. The first is the more potent here.

Compared with COc1cccc2c1C(=O)c1c(O)c3c(c(O)c1C2=O)C[C@@](O)(C(=O)CO)C[C@@H]3O[C@H]1C[C@H](N)[C@H](O)[C@H](C)O1 [DOXORUBICIN], CCc1cc2ccccc2nc1-c1cc(-c2ccc(F)cc2)no1 is higher in IC50: 0.8 µM for the first, > 100 µM for the second. The first is the more potent here.

First: CCCc1cc2ccccc2nc1-c1cc(-c2ccc(F)cc2)no1
Second: CCCCc1cc2ccccc2nc1-c1cc(-c2ccc(F)cc2)no1
The IC50 of the first is 2-fold higher: 48.4 µM for the first, 24.2 µM for the second. The second is the more potent here.

test system: A549; experiment: Cytotoxicity against human A549 cells assessed as growth inhibition after 24 hrs by MTT assay; type: functional, cell-based; settings: A549, 24 h

CCc1cc2ccccc2nc1-c1cc(-c2ccc(C)cc2)no1 and CCCc1cc2ccccc2nc1-c1cc(-c2ccc(C)cc2)no1 cannot be ordered by IC50: > 100 µM for the first, > 100 µM for the second.

Fc1ccc(-c2cc(/C=N/c3ccccc3)on2)cc1 and Cc1ccc(-c2cc(/C=N/c3ccccc3)on2)cc1 are within 1.5-fold of each other in IC50: 34.5 µM for the first, 32 µM for the second.

C(=N\c1ccccc1)/c1cc(-c2ccccc2)no1 and FC(F)(F)c1ccc(-c2cc(/C=N/c3ccccc3)on2)cc1 are within 1.5-fold of each other in IC50: 48.1 µM for the first, 38.9 µM for the second.

First: CCCCCc1cc2ccccc2nc1-c1cc(-c2ccccc2)no1
Second: CCCCc1cc2ccccc2nc1-c1cc(-c2ccccc2)no1
The IC50 of the first is lower: 92.3 µM for the first, > 100 µM for the second.

Compared with CCCc1cc2ccccc2nc1-c1cc(-c2ccccc2)no1, CCc1cc2ccccc2nc1-c1cc(-c2ccccc2)no1 is higher in IC50: 52.5 µM for the first, > 100 µM for the second.

CCCCCc1cc2ccccc2nc1-c1cc(-c2ccc(C)cc2)no1 and CCCCc1cc2ccccc2nc1-c1cc(-c2ccc(C)cc2)no1 cannot be ordered by IC50: > 100 µM for the first, > 100 µM for the second.

Compared with CCCc1cc2ccccc2nc1-c1cc(-c2ccc(C(F)(F)F)cc2)no1, CCCCc1cc2ccccc2nc1-c1cc(-c2ccc(C(F)(F)F)cc2)no1 is 4.7-fold lower in IC50: 43.9 µM for the first, 9.4 µM for the second.

Compared with CCCCCc1cc2ccccc2nc1-c1cc(-c2ccc(C(F)(F)F)cc2)no1, CCc1cc2ccccc2nc1-c1cc(-c2ccc(C(F)(F)F)cc2)no1 is higher in IC50: 28.3 µM for the first, > 100 µM for the second.

First: CCc1cc2ccccc2nc1-c1cc(-c2ccc(F)cc2)no1
Second: CCCc1cc2ccccc2nc1-c1cc(-c2ccc(F)cc2)no1
The IC50 of the first is higher: > 100 µM for the first, 51.3 µM for the second.

In the case of CCCCc1cc2ccccc2nc1-c1cc(-c2ccc(F)cc2)no1, the IC50 is reported as 27.5 µM.
